The values below come from patent US20100311714A1, “1H-IMIDAZO[4,5-c]QUINOLINONE COMPOUNDS” (priority 2009, published 2010).

Experiment [1] addresses T1, mTOR (Homo sapiens, UniProt P42345).
T1 construct: purchased Invitrogen Corporation (Carlsbad/Calif., USA) PV4753
The experiment is described as follows: Biochemical assay for m-TOR by TR-FRET. Particulars: read-out: EPK_mTOR/IC50. Summed up:
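mTOR (0.5 nM) phosphorylates GFP-4EBP1 (400 nM) with 8 μM ATP at rt in 50 mM HEPES pH 7.5, 10 mM MnCl2, 50 mM NaCl, 1 mM EGTA, 1 mM DTT; compounds 0.003–10 μM final. EDTA stop with Tb-anti-p4EBP1[pT46] antibody (0.5 nM); TR-FRET read after 15 min against no-enzyme and vehicle controls.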
Background: TR-FRET usually uses a lanthanide donor and a delayed reading to cut background.

Experiment [2] concerns S6 Ribosomal Protein phosphorylation Ser235/236 in TSC1 null mouse embryo fibroblast (MEF) cells. The experiment can be described thus: Reverse protein array, S6 Ribosomal Protein phosphorylation in TSC1 null MEF cells. Type of experiment: cell-based. The note with it: 1 h, TSC1-/- MEFs, 60 minutes, read-out: p-S6 IC50. Summed up: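 Phospho-S6 (Ser235/236) was quantified by reverse protein array of cell lysates with a phospho-specific primary antibody. […]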

T1 sequence (P42345 1360-2549 limits assumed): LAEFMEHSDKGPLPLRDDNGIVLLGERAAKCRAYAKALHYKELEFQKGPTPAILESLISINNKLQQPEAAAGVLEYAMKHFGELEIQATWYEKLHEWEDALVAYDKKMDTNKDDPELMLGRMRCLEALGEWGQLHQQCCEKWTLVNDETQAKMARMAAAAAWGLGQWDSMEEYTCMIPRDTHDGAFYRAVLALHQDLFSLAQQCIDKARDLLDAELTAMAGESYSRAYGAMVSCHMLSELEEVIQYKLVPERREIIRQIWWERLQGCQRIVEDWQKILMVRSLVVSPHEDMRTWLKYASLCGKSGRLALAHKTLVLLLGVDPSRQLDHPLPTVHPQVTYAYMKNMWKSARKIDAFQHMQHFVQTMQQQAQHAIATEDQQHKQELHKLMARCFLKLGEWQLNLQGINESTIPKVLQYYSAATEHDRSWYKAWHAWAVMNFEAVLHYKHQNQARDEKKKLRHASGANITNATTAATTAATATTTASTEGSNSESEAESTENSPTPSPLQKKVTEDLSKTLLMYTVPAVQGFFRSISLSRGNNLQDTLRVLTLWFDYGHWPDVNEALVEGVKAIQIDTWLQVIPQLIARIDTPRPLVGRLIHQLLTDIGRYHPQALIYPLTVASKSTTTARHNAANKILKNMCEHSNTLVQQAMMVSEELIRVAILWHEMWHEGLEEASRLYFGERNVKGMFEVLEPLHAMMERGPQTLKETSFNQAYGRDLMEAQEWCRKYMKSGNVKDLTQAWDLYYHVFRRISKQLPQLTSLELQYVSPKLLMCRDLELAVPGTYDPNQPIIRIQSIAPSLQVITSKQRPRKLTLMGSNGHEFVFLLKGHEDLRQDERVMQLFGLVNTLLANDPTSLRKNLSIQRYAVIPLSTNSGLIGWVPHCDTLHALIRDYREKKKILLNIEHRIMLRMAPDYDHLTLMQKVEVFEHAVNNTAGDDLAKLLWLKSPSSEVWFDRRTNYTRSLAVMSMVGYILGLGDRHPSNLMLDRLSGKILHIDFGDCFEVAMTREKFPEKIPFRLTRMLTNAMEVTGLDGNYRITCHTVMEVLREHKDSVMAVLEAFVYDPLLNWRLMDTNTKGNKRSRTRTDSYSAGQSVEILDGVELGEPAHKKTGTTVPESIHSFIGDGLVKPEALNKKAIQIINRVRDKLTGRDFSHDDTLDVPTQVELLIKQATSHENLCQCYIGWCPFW

For `CNc1ncc(-c2ccc3ncc4c(c3c2)n(-c2ccc(N3CC[C@H](O)C3)nc2C)c(=O)n4C)cc1F` [Example 32.2, 8-(5-Fluoro-6-methylamino-pyridin-3-yl)-1-[6-((S)-3-hydroxy-pyrrolidin-1-yl)-2-methyl-pyridin-3-yl]-3-methyl-1,3-dihydro-imidazo[4,5-c]quinolin-2-one], the figures for the IC50 in experiment [1] and in experiment [2] were 10 nM and 1 nM, respectively.
As for `COc1ncc(-c2ccc3ncc4c(c3c2)n(-c2ccc(N3CC[C@H](O)C3)nc2C)c(=O)n4C)c(OC)n1` [Example 32.3, 8-(2,4-Dimethoxy-pyrimidin-5-yl)-1-[6-((S)-3-hydroxy-pyrrolidin-1-yl)-2-methyl-pyridin-3-yl]-3-methyl-1,3-dihydro-imidazo[4,5-c]quinolin-2-one], the IC50 in experiment [1] was found to be 15 nM; in experiment [2], 4 nM.
As to `CNc1ncc(-c2ccc3ncc4c(c3c2)n(-c2ccc(N3CC[C@H](O)C3)nc2C)c(=O)n4C)cc1C(F)(F)F` [Example 32.5, 1-[6-((S)-3-Hydroxy-pyrrolidin-1-yl)-2-methyl-pyridin-3-yl]-3-methyl-8-(6-methylamino-5-trifluoromethyl-pyridin-3-yl)-1,3-dihydro-imidazo[4,5-c]quinolin-2-one], the IC50 in experiment [1] turned out to be 9 nM; in experiment [2], 1 nM.
Turning to `Cc1nc(N2CC[C@H](O)C2)ccc1-n1c(=O)n(C)c2cnc3ccc(-c4cncc(OC(C)C)c4)cc3c21` [Example 32.8, 1-[6-((S)-3-Hydroxy-pyrrolidin-1-yl)-2-methyl-pyridin-3-yl]-8-(5-isopropoxy-pyridin-3-yl)-3-methyl-1,3-dihydro-imidazo[4,5-c]quinolin-2-one], the IC50 in experiment [1] came to 42.5 nM; in experiment [2], 2.2 nM.
The matching figures for `Cc1nc(C(F)(F)F)ccc1-n1c(=O)n(C)c2cnc3ccc(-c4cncc(C(C)(C)O)c4)cc3c21` [Example 33.1, 8-[5-(1-Hydroxy-1-methyl-ethyl)-pyridin-3-yl]-3-methyl-1-(2-methyl-6-trifluoromethyl-pyridin-3-yl)-1,3-dihydro-imidazo[4,5-c]quinolin-2-one]: 92 nM and 2 nM.
In the same order, the values of `CCNc1ncc(-c2ccc3ncc4c(c3c2)n(-c2ccc(N3CC[C@@H](O)C3)nc2C)c(=O)n4C)cc1C(F)(F)F` [Example 34.2, 8-(6-Ethylamino-5-trifluoromethyl-pyridin-3-yl)-1-[6-((R)-3-hydroxy-pyrrolidin-1-yl)-2-methyl-pyridin-3-yl]-3-methyl-1,3-dihydro-imidazo[4,5-c]quinolin-2-one] are 36 nM and 1.9 nM.
The matching figures for `CCNc1ncc(-c2ccc3ncc4c(c3c2)n(-c2ccc(N3CC[C@@H](O)C3)nc2C)c(=O)n4C)cc1COCC` [Example 34.4, 8-(5-Ethoxymethyl-6-ethylamino-pyridin-3-yl)-1-[6-((R)-3-hydroxy-pyrrolidin-1-yl)-2-methyl-pyridin-3-yl]-3-methyl-1,3-dihydro-imidazo[4,5-c]quinolin-2-one]: 214 nM and 8 nM.
